Active and inactive are the calls of the source. The calls are words filed in the database; no cut-off is given here.
Experiments:
Ciona savignyi = test: Promotion of metamorphosis in ascidian Ciona savignyi larvae at 2.5 ug/ml after 10 hrs; format: functional, organism-based
[1] = tested on: Microbacterium maritypicum; test: Antimicrobial activity against Flavobacterium marinotypicum ATCC 19260 at 10 ug/disk after 24 hrs by paper disk method; format: functional; conditions: ATCC 19260, 24 h, read-out: IZ

Row | Structure (SMILES) | Activity (Ciona savignyi) | zone of inhibition at 10 µg/disc [1]
1 | NC(=O)c1cc(Br)c(Br)[nH]1 | Active | –
2 | Nc1ncc(/C=C/CNC(=O)c2cc(Br)c(Br)[nH]2)[nH]1 [OROIDIN] | – | 15 mm
3 | NC1=NC(=O)C(/C=C/CNC(=O)c2cc(Br)c(Br)[nH]2)(c2nc(N)[nH]c2/C=C/CNC(=O)c2cc(Br)c(Br)[nH]2)N1 (stereo not drawn) [MAURITIAMINE] | – | 10 mm

Source: ChEMBL document CHEMBL1158207, “Mauritiamine, a New Antifouling Oroidin Dimer from the Marine Sponge Agelas mauritiana” (1996)
